Here are results for 28 compounds from ChEMBL document CHEMBL4118109, “A combination of 19F NMR and surface plasmon resonance for site-specific hit selection and validation of fragment molecules that bind to the ATP-binding site of a kinase” (Bioorg Med Chem, 2018).

Molecules are shown by their SMILES. The source made the active and inactive calls. No cut-off for these calls is given here. Where only a bound is given, the exact number is not on record here.

Assay [1] deals with T1, Mitogen-activated protein kinase 1 (Homo sapiens, UniProt P28482). Nature of the assay: Binding affinity to ATP-binding site of ERK2 (unknown origin) assessed as reduction in signal intensity by 19F NMR spectroscopy. The arrangement: concentration or dose not given beside the values.
Assay [2] addresses T1, Mitogen-activated protein kinase 1. Nature of the assay: Binding affinity to ATP-binding site of ERK2 (unknown origin) assessed as reduction in signal intensity in absence of competitor by 19F NMR spectroscopy. The arrangement: concentration or dose not given beside the values.
Assay [3] shares this target. Nature of the assay: Binding affinity to ATP-binding site of ERK2 (unknown origin) assessed as reduction in signal intensity in presence of […] by competitive 19F NMR spectroscopy. Also noted: concentration or dose not given beside the values.
Assay [4] shares this target. Nature of the assay: Binding affinity to ATP-binding site of ERK2 (unknown origin) assessed as reduction in signal intensity in presence of L100919 by competitive 19F NMR spectroscopy. Also noted: concentration or dose not given beside the values.
Assay [5] has the same target. Nature of the assay: Binding affinity to ATP-binding site of ERK2 (unknown origin) assessed as reduction in signal intensity in presence of L100919 at 1 mM by competitive surface plasmon resonance method. The arrangement: scale not given: the % may be the effect or the level left.
Assay [6] has the same target. Nature of the assay: Binding affinity to ATP-binding site of ERK2 (unknown origin) by surface plasmon resonance method.
Assay [7] shares this target. Nature of the assay: Binding affinity to ATP-binding site of ERK2 (unknown origin) assessed as reduction in signal intensity in presence of FR180204 at 1 mM by competitive surface plasmon resonance method. Also noted: scale not given: the % may be the effect or the level left. In general terms: Surface plasmon resonance follows binding to a sensor surface in real time, without labels.

Assay [8] shares this target. Nature of the assay: Binding affinity to ATP-binding site of ERK2 (unknown origin) by isothermal titration calorimetry. (Isothermal titration calorimetry measures the heat released or taken up as one component is titrated into another.)

T1 sequence (P28482 whole entry): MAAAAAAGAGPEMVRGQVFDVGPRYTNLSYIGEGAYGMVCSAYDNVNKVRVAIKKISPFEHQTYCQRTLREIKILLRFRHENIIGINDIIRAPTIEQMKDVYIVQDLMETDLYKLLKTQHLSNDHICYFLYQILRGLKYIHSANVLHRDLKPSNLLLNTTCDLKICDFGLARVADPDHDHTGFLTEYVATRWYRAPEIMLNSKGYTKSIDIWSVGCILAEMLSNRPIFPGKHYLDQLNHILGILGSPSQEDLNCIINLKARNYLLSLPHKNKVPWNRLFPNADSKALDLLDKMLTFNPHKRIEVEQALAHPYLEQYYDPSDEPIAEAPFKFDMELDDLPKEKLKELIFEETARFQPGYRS

What is called Kd is a measure of binding affinity in units of concentration. As for `Fc1ccc2[nH]cc(C3CCOCC3)c2c1`, the Activity in assay [1] came to 14%; in assay [2] it was 16%; in assay [3], 10%; in assay [4] it was 14%; in assay [5], 10%. In assay [6], this compound displayed a Kd above 1 mM.

Take `NCc1cn(Cc2ccccc2F)cn1`: in assay [1], the result was inactive.

For the compound `CC(C)(C)OC(=O)N1CCC(CN)(Cc2ccc(C(F)(F)F)cc2)CC1`, the Activity in assay [1] was determined as 32%; in assay [2] it was 0%.

Take `Nc1ccc2nc(-c3ccc(F)cc3)nn2c1`: the Activity in assay [1] was determined as 43%; in assay [2], 26%; in assay [3], 15%; in assay [4], 24%. This compound registered a Kd in assay [6] above 1 mM.

For `N[C@H]1CC[C@H](N2Cc3cc(F)ccc3C2=O)CC1`, the outcome in assay [1] was inactive.

For the compound `Nc1c(F)cccc1N1CCCCC1`, the Activity in assay [1] came out at 31%; in assay [2], 17%; in assay [3], 7%; in assay [4] it was 12%; in assay [7], 10%; in assay [5], 17%.

For the compound `CC(C)(C)OC(=O)N1CCC(Cc2cccc(C(F)(F)F)c2)(C(=O)O)CC1`, the Activity came to 26% in assay [1], 30% in assay [2], 23% in assay [3] and 25% in assay [4]. In assay [6], this compound yielded a Kd above 1 mM.

As for `Fc1cccc(-c2nnc3ccc(Br)cn23)c1`, the Activity was determined as 54% in assay [1]; 49% in assay [2]; 16% in assay [3]; 20% in assay [4]; 12% in assay [7]. Besides, the Kd in assay [6] was above 1 mM.

Consider `FC(F)(F)c1cnn2cc(Br)cnc12`, for which the Activity in assay [1] was 33%; in assay [2] it was 22%; in assay [3], -4%; in assay [4], 5%.

Turning to `Fc1ccc2[nH]cc(CC3CCOCC3)c2c1`, the Activity turned out to be 28% in assay [1], 30% in assay [2], 19% in assay [3] and 20% in assay [4]. Besides, the Kd in assay [6] was 0.929 mM; in assay [8], 410 µM.

As to `NC1CCN(c2cccc(F)c2[N+](=O)[O-])CC1`, the Activity in assay [1] was 39%; in assay [2] it was 10%. The compound further registered a Kd in assay [6] above 1 mM.

For the compound `O=C1c2cccc(F)c2CN1[C@H]1CCCNC1`, the Activity was 32% in assay [1]; 22% in assay [2]; -1% in assay [3]; 8% in assay [4]; 31% in assay [7]; 26% in assay [5]. This compound also had a Kd in assay [6] above 1 mM.

Take `CC(C)(C)OC(=O)N[C@H]1CCN(c2ncccc2[N+](=O)[O-])C1`: the Activity amounted to 20% in assay [1] and 2% in assay [2]. Also, the Kd in assay [6] was above 1 mM.

For `Fc1ccc2c(CC3CCOCC3)c[nH]c2c1`, the Activity in assay [1] is 36%; in assay [2], 24%; in assay [3], 22%; in assay [4], 23%; in assay [7] it was 25%. The Kd in assay [6] was above 1 mM.

Consider `Nc1cnc(Nc2ccc(C(F)(F)F)cc2)nc1`, for which the Activity in assay [1] came to 40%; in assay [2], 26%; in assay [3], 7%; in assay [4], 5%; in assay [7] it was 14%. The Kd in assay [6] is above 1 mM.

For the compound `CC(C)(C)OC(=O)N1CCC2(CC1)C(=O)Nc1ccc(F)cc12`, the Activity in assay [1] was 39%; in assay [2], 45%; in assay [3], 13%; in assay [4], 15%.

`CC(C)(C)OC(=O)N1CCC(CN)(Cc2cccc(C(F)(F)F)c2)CC1`: the Activity came to 26% in assay [1] and 9% in assay [2]. The Kd in assay [6] was above 1 mM.

In the case of `CCOc1cc(N)cc(C(F)(F)F)c1`, the Activity in assay [5] was 17%. Besides, the Kd in assay [6] was above 1 mM.

Take `O=C(O)c1ccc2nc(-c3ccccc3F)nn2c1`: the Activity in assay [1] was determined as 47%; in assay [2], 35%; in assay [3] it was 17%; in assay [4], 24%; in assay [7], 14%; in assay [5], 12%. Besides, in assay [6], the Kd is above 1 mM.

In the case of `O=C1c2ccc(F)cc2CN1[C@H]1CCCNC1`, the Activity was found to be 66% in assay [1], 67% in assay [2], 2% in assay [3] and 8% in assay [4]. In assay [6], this compound gave a Kd above 1 mM.

On to `Nc1cnc2c(C(F)(F)F)cnn2c1`, for which the Activity in assay [1] was 33%; in assay [2] it was -12%; in assay [7] it was 23%; in assay [5], 19%.

For `O=C1c2ccc(F)cc2CN1C1CCNCC1`, the Activity in assay [1] amounted to 13%; in assay [2] it was 7%. Further, in assay [6], the Kd is above 1 mM.

Take `NCc1cn(Cc2ccccc2C(F)(F)F)cn1`: the result in assay [1] was inactive. In addition, the Kd in assay [6] is above 1 mM.

With `Fc1ccc2[nH]cc(C3CCCNC3)c2c1` (centres undefined), the Activity in assay [1] came out at 10%; in assay [2] it was 20%; in assay [3] it was 9%; in assay [4], 9%. The compound also showed a Kd in assay [6] above 1 mM.

For the compound `FC(F)(F)c1ccnc(NC2CCNCC2)c1`, the Activity in assay [1] is 11%; in assay [2], 9%; in assay [7], 20%. For the same compound, in assay [6], the Kd is 0.989 mM.

Regarding `COCCCNc1ccc(F)cc1[N+](=O)[O-]`, the Activity amounted to 29% in assay [1], 15% in assay [2], 10% in assay [3] and 14% in assay [4].

Take `N[C@H]1CC[C@H](N2Cc3c(F)cccc3C2=O)CC1`: the Activity in assay [1] was determined as 41%; in assay [2], 9%; in assay [7], 15%; in assay [5], 12%. Moreover, the Kd in assay [6] worked out at 0.495 mM.

Take `Fc1cccc2c1CC1(CCOCC1)CN2`: the Activity in assay [1] worked out at 29%; in assay [2] it was 20%; in assay [3], 14%; in assay [4], 16%.
